From US9572827B2, “Pharmaceutical composition for treating depression and method for preparation thereof” (Beijing Wonner Biotech, Ltd. Co., priority 2005, dated 2017)

Columns and labels:
ICR mice [1] = assay: Body temperature decrease experiment induced by resetpine; format: in vivo; settings: 16.7 mg/kg, 2 times per day for 7 days
Excerpt: Experiment 2: Body Temperature Decrease Experiment Induced by Resetpine
Experimental animal: ICR mice
Experimental pharmaceuticals: The pharmaceutical of the Embodiment 3 of the present invention is provided by Beijing Wonner Biotech Ltd. Co., the depression-relieving pill is the product of Zhengzhou Yumi Medicines Co. Ltd., and Paroxitine (Paxil) is the product of Zhong Mei Tianjin Smith Kline pharmaceuticals Co. Ltd.
I. Group division: 1. Large dose of the Embodiment 3 medicine of the present invention (188.5 mg/kg), 2. middle dose of the Embodiment 3 medicine of the present invention (94.25 mg/kg), 3. small dose of the Embodiment 3 medicine of the present invention (47.125 mg/kg), 4. depression-reliving pill (650 mg/kg), 5. Paroxitine (16.7 mg/kg), and 6. physiological saline. (Ten (10) mice are in each group.)
II. Administration of drug: the abovementioned pharmaceutical water solutions are fed into the stomach according to 0.2 ml/10 g body weight, 2 times per day for a total of 7 days.
III. After the last administration of drug, the anal temperature (abbreviated as anal temp.) is determined, and then 2 mg resetpine per kg of the body weight is taken by intraperitoneal injection. After injecting the resetpine for 2, 3, 4, 5, 6 and 7 hours respectively, the anal temperature of the mice are determined.
The variance analysis calculation and the p-value compared with the control of the experimental result are calculated by using SPSS 11.5 analytic software.

ICR mice [2] = assay: Mouse tail-hanging experiment; format: in vivo; settings: 16.7 mg/kg, fed into the stomach 2 times per day for 7 days; 1 hour after last administration; last 5 of 6 minutes
Procedure: Experiment 1: “Mouse Tail-Hanging” Experiment Experimental animal: ICR mice Experimental pharmaceuticals: The pharmaceutical of the Embodiment 3 of the present invention is provided by Beijing Wonner Biotech Ltd. Co., the depression-relieving pill is the product of Zhengzhou Yumi Medicines Co. Ltd., and Paroxitine (Paxil) is the product of Zhong Mei Tianjin Smith Kline pharmaceuticals Co. Ltd. I. Group division: 1. Large dose of the Embodiment 3 medicine of the present invention (188.5 mg/kg), 2. middle dose of the Embodiment 3 medicine of the present invention (94.25 mg/kg), 3. small dose of the Embodiment 3 medicine of the present invention (47.125 mg/kg), 4. depression-reliving pill (650 mg/kg), 5. Paroxitine (16.7 mg/kg), and 6. physiological saline. (Ten (10) mice are in each group.) II. Administration of drug: The abovementioned pharmaceutical water solutions are fed into the stomach according to 0.2 ml/10 g body weight, 2 times per day for a total of 7 days. After 1 hour of the last administration of drug, the mouse tail-hanging experiment is proceeded. III. […] The time of non-movement of the mouse for the last 5 minutes is recorded. The variance analysis calculation and the p-value compared with the control of the experimental result are calculated by using SPSS 11.5 analytic software.

Question: For `Fc1ccc([C@@H]2CCNC[C@H]2COc2ccc3c(c2)OCO3)cc1` [Paroxitine], which “Decreased anal temp. for 2 hr” value (ICR mice [1]; 2 hr after resetpine 2 mg/kg i.p.) is on record?
Answer: Its value is 1.29 ± 0.47 °C.

Question: What about the “Decreased anal temp. for 3 hr” value (ICR mice [1]; 3 hr after resetpine 2 mg/kg i.p.) of the same molecule?
Answer: The value was 1.08 ± 0.35 °C.

Question: And the “Decreased anal temp. for 4 hr” value (ICR mice [1]; 4 hr after resetpine 2 mg/kg i.p.)?
Answer: Its value is 1.55 ± 0.64 °C.

Question: And the “Decreased anal temp. for 5 hr” value (ICR mice [1]; 5 hr after resetpine 2 mg/kg i.p.)?
Answer: Its value is 1.44 ± 0.32 °C.

Question: What about the “Decreased anal temp. for 6 hr” value (ICR mice [1]; 6 hr after resetpine 2 mg/kg i.p.) of the same molecule?
Answer: The value was 2.51 ± 0.47 °C.

Question: And the “Decreased anal temp. for 7 hr” value (ICR mice [1]; 7 hr after resetpine 2 mg/kg i.p.)?
Answer: Its value is 2.76 ± 0.59 °C.

Question: And the Time of non-movement (ICR mice [2])?
Answer: The Time of non-movement was 54.98 ± 46.92 s.
